Measured values taken from patent US12275731B2, “Azaindole inhibitors of wild-type and mutant forms of LRRK2” (DANA-FARBER CANCER INSTITUTE, INC., priority 2018, dated 2025).

How the values were obtained:
Assay in all cases: KinomeScan profiling
Type in all cases: binding
[1] = target: EGFR(L858R) (Homo sapiens, UniProt P00533, L858R); details: read-out: % control
Outline: (§1)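 Selectivity was assessed by binding competition at 1 μM against 468 kinases. Values below 35% of control define an interaction.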

[2] = target: T1, MYLK4 (Homo sapiens, UniProt Q86YV6); details: MYLK4, 1 μM; read-out: % control
T1 sequence (Q86YV6 1-388): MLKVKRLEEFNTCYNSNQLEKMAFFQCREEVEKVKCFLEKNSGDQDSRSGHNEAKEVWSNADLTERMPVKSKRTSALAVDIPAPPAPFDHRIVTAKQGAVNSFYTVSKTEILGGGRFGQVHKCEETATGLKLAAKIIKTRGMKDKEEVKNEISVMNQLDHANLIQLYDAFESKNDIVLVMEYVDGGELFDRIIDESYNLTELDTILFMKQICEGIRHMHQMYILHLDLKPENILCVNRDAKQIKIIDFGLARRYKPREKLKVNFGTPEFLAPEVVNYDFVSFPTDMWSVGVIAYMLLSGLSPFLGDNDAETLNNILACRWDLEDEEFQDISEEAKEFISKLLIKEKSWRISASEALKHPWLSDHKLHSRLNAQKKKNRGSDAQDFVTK
Outline: as §1

[3] = target: T2, TAOK3 (Homo sapiens, UniProt Q9H2K8); details: TAOK3, 1 μM; read-out: % control
T2 sequence (Q9H2K8 1-898): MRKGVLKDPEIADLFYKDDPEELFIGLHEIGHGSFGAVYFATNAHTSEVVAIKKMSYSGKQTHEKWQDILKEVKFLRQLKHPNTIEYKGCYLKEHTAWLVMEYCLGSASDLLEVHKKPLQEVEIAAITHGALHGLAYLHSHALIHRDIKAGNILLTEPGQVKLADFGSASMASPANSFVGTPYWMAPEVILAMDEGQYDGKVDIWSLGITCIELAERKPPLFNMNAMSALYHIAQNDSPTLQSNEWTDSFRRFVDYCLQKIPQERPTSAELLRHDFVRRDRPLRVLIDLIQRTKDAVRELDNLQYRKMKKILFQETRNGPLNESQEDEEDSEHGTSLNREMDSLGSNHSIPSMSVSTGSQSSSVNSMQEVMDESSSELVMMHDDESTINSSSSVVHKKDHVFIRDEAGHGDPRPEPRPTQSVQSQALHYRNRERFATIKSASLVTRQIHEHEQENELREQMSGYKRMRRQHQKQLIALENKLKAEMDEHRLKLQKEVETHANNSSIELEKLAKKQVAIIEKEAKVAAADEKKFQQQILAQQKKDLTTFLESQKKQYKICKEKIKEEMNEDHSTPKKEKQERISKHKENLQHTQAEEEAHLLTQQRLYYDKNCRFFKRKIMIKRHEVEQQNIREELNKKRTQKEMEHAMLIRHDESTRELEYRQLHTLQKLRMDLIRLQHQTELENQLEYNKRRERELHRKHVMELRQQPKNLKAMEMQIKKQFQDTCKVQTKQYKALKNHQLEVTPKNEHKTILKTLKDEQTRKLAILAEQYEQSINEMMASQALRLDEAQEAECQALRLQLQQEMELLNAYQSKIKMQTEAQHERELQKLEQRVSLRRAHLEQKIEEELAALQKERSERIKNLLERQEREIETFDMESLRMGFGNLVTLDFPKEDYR
Outline: as §1

[4] = target: LIMK2 (Homo sapiens, UniProt P53671); details: LIMK2, 1 μM; read-out: % control
Outline: as §1

[5] = target: T3, CHEK1 (Homo sapiens, UniProt O14757); details: CHEK1, 1 μM; read-out: % control
T3 sequence (O14757 1-476): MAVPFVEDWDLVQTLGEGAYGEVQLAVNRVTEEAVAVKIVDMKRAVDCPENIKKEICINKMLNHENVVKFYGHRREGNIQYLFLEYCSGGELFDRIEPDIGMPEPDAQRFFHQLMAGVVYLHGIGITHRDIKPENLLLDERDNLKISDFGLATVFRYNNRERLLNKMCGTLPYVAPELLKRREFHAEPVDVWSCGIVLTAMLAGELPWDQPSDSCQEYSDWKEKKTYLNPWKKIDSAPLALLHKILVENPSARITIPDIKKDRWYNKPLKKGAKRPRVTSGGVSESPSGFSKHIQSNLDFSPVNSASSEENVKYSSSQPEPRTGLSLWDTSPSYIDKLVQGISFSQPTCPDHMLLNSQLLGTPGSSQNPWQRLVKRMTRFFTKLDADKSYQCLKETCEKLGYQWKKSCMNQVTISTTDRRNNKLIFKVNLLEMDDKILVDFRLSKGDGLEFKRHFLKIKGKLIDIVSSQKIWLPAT
Outline: as §1

[6] = target: T4, NEK3 (Homo sapiens, UniProt P51956); details: NEK3, 1 μM; read-out: % control
T4 sequence (P51956 1-506): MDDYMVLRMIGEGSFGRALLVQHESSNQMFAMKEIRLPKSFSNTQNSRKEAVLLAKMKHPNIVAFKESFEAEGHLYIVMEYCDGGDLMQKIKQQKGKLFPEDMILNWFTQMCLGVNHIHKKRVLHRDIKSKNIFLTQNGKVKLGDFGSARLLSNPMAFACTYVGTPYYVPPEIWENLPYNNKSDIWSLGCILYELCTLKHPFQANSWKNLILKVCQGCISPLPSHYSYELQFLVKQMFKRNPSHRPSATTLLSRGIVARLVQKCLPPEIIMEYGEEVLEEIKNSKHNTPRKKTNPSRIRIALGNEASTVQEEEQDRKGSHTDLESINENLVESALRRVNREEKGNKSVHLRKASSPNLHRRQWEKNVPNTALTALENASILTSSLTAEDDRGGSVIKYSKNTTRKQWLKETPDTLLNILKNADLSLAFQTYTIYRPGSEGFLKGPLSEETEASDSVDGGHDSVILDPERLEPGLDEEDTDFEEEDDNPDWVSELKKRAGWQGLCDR
Outline: as §1

[7] = target: T5, RPS6KA5(Kin.Dom.1-N-terminal) (Homo sapiens, UniProt O75582); details: read-out: % control
T5 construct: RPS6KA5(Kin.Dom.1-N-terminal)
Outline: as §1

[8] = target: EGFR(L861Q) (Homo sapiens, UniProt P00533, L861Q); details: read-out: % control
Outline: as §1

T5 sequence (O75582 49-318 limits assumed): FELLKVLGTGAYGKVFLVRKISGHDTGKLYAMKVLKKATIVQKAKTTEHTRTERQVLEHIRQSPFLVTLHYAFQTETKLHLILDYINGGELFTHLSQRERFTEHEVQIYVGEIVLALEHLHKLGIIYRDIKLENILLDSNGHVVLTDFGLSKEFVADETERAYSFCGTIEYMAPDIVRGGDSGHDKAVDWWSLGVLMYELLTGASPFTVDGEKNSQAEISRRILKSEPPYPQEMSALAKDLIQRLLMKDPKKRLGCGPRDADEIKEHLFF
Chain of LIMK2 (P53671 whole entry): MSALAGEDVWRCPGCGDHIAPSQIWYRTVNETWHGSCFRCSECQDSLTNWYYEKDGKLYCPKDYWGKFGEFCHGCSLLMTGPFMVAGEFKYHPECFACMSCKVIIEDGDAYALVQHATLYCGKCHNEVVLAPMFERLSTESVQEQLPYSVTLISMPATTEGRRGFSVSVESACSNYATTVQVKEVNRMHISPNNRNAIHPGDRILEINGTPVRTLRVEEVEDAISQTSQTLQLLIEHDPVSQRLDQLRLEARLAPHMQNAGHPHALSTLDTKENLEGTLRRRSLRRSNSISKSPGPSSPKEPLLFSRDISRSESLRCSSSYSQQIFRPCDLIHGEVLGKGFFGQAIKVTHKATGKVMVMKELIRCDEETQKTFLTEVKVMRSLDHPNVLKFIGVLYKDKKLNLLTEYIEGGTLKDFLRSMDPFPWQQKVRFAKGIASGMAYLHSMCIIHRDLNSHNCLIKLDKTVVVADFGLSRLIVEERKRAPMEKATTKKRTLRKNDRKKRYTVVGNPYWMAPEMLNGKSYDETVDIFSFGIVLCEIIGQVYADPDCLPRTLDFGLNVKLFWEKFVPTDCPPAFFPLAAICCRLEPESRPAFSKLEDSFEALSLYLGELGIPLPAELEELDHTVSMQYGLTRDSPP
Chain of EGFR(L858R) (P00533 25-1210 L858R): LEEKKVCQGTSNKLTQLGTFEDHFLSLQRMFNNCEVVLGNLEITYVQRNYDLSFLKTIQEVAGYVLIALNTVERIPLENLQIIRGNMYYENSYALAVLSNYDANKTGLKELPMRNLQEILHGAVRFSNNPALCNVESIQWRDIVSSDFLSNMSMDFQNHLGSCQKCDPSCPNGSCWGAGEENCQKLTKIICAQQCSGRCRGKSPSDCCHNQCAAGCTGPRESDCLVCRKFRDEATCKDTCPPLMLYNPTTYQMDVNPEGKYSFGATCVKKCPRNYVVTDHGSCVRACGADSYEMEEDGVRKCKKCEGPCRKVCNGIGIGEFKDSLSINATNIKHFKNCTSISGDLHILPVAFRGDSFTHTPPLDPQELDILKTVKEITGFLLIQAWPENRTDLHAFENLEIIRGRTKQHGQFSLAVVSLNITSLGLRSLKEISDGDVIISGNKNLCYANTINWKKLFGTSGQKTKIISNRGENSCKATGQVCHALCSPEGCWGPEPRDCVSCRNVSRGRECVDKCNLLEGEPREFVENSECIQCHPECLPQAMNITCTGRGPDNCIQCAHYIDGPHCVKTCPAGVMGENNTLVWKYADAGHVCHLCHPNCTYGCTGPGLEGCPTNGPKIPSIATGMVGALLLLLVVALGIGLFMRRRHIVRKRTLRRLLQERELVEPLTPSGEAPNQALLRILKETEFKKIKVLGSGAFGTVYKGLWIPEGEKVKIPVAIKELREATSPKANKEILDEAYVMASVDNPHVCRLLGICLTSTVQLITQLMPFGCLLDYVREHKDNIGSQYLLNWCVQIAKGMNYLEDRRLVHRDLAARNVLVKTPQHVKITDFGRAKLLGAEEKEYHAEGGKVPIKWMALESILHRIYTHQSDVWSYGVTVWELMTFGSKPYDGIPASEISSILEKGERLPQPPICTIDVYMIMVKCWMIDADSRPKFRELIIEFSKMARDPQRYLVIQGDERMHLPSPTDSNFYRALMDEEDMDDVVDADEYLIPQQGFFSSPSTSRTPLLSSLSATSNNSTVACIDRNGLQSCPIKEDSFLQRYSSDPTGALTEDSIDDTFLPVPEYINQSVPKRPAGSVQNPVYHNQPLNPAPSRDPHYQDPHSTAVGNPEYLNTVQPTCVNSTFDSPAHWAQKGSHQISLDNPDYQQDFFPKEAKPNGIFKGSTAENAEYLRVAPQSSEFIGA
Chain of EGFR(L861Q) (P00533 25-1210 L861Q): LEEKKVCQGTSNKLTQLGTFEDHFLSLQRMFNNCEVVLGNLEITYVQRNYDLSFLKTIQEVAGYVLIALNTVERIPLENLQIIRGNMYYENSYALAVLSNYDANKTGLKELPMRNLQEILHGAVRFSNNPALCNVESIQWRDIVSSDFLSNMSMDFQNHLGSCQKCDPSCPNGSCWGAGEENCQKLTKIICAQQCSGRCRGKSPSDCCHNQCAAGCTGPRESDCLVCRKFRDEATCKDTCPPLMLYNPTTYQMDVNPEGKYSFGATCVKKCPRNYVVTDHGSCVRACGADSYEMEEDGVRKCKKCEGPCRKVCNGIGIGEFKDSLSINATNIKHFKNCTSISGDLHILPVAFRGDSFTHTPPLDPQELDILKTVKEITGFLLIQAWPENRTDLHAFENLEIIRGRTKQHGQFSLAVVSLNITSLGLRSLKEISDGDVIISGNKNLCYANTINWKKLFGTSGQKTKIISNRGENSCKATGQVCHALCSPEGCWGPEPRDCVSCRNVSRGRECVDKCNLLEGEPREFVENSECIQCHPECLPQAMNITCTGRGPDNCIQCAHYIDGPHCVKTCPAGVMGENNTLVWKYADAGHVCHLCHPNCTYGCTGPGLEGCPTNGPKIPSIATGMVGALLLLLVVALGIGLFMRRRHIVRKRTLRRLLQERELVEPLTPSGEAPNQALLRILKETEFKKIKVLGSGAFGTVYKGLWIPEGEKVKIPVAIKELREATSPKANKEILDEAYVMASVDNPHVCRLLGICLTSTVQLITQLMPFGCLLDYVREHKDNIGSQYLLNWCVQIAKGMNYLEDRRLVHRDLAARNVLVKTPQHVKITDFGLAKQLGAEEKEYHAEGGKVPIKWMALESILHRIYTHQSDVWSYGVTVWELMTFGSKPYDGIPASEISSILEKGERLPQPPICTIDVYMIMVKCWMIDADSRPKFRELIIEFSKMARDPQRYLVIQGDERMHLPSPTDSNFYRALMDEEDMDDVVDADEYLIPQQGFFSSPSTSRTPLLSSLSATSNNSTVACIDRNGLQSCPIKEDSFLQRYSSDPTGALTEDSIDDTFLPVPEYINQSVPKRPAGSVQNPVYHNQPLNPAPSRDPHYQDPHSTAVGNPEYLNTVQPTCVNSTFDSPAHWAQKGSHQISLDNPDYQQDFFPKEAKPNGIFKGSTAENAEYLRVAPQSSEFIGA

CNc1c(-c2cnn([C@H]3CCN(C(C)=O)C[C@@H]3F)c2)cnc2[nH]cc(Cl)c12 [Compound 77, 1-((3S,4S)-4-(4-(3-chloro-4-(methylamino)-1H-pyrrolo[2,3-b]pyridin-5-yl)-1H-pyrazol-1-yl)-3-fluoropiperidin-1-yl)ethan-1-one]
remaining binding at 1 µM [1]: 100% | remaining binding at 1 µM [2]: 90% | remaining binding at 1 µM [3]: 95% | remaining binding at 1 µM [4]: 97% | remaining binding at 1 µM [5]: 89% | remaining binding at 1 µM [6]: 68% | remaining binding at 1 µM [7]: 100% | remaining binding at 1 µM [8]: 96%

O=C(c1ccc(-c2cnc3[nH]cc(Cl)c3c2NC2CCCC2)cc1)N1CCC(N2CCOCC2)CC1 [Compound 101, (4-(3-chloro-4-(cyclopentylamino)-1H-pyrrolo[2,3-b]pyridin-5-yl)phenyl)(4-morpholinopiperidin-1-yl)methanone]
remaining binding at 1 µM [1]: 96% | remaining binding at 1 µM [2]: 95% | remaining binding at 1 µM [3]: 88% | remaining binding at 1 µM [4]: 99% | remaining binding at 1 µM [5]: 83% | remaining binding at 1 µM [6]: 95% | remaining binding at 1 µM [7]: 90% | remaining binding at 1 µM [8]: 89%

CNc1c(-c2ccc(C(=O)N3CCC(N4CCOCC4)CC3)cc2)cnc2[nH]cc(Cl)c12 [Compound 96, (4-(3-chloro-4-(methylamino)-1H-pyrrolo[2,3-b]pyridin-5-yl)phenyl)(4-morpholinopiperidin-1-yl)methanone]
remaining binding at 1 µM [1]: 100% | remaining binding at 1 µM [2]: 100% | remaining binding at 1 µM [3]: 91% | remaining binding at 1 µM [4]: 100% | remaining binding at 1 µM [5]: 84% | remaining binding at 1 µM [6]: 82% | remaining binding at 1 µM [7]: 100% | remaining binding at 1 µM [8]: 90%
